# Test results published in US10934310B2, “Inhibitors of Bruton's tyrosine kinase and method of their use” (JANSSEN PHARMACEUTICA NV, priority 2015, dated 2021).
# Molecular target: unphosphorylated-BTK kinase domain (UP-BTK), GST-tagged human BTK (389-659aa) (Homo sapiens (Human), UniProt Q06187)
# Test: BTK Kinase Lanthascreen Binding Assay
# Conditions: Lanthascreen binding, 60 minutes incubation; pIC50 = negative log of the IC50 in molar
# Procedure: BTK Kinase Lanthascreen Binding Assay:
# A BTK kinase lanthascreen binding assay monitors compound binding to unphosphorylated-BTK kinase domain (UP-BTK), by competing with a fluorescent labeled tracer. […] Data were analyzed using Xlfit™ version 5.3 from ID Business Solutions (Guildford), Microsoft Excel add-in. pIC50 refers to the negative log of the IC50 in molar.
# unphosphorylated-BTK kinase domain (UP-BTK), GST-tagged human BTK (389-659aa), sequence (Q06187 389-659): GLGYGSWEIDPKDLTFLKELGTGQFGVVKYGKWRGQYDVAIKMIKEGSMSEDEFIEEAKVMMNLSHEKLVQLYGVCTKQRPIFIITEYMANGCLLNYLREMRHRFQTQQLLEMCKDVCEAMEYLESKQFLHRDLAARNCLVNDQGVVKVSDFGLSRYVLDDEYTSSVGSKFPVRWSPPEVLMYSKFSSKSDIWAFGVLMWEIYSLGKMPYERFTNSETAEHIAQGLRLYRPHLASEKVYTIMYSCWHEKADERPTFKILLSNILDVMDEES
row,Structure (SMILES),BTK_I_binding pIC50
1,"CC(=O)N[C@@H]1CCCC[C@@H]1NC(=O)c1sc2nccc3c2c1NC(=O)N3c1ccc(Oc2ccccc2)cc1C (single isomer, unassigned) [Example 446, N-((1S,2R)-2-Acetamidocyclohexyl)-5-(*S)-(2-methyl-4-phenoxyphenyl)-4-oxo-4,5-dihydro-3H-1-thia-3,5,8-triazaacenaphthylene-2-carboxamide]",6.72
2,"Cc1cc(Oc2ccccc2)ccc1N1C(=O)Nc2c(C(=O)N[C@@H]3CCCC[C@H]3NC(=O)CN(C)C)sc3nccc1c23 (single isomer, unassigned) [Example 447, N-((1R,2R)-2-(2-(Dimethylamino)acetamido)cyclohexyl)-5-(*S)-(2-methyl-4-phenoxyphenyl)-4-oxo-4,5-dihydro-3H-1-thia-3,5,8-triazaacenaphthylene-2-carboxamide]",6.67
3,"CNCC(=O)N[C@@H]1CCCC[C@H]1NC(=O)c1sc2nccc3c2c1NC(=O)N3c1ccc(Oc2ccccc2)cc1C (single isomer, unassigned) [Example 448, 5-(*S)-(2-Methyl-4-phenoxyphenyl)-N-((1R,2R)-2-(2-(methylamino)acetamido)cyclohexyl)-4-oxo-4,5-dihydro-3H-1-thia-3,5,8-triazaacenaphthylene-2-carboxamide]",6.66
4,"Cc1cc(Oc2ccccc2)ccc1N1C(=O)Nc2c(C(=O)N[C@H]3CCCC[C@H]3NC(=O)CN(C)C)sc3nccc1c23 (single isomer, unassigned) [Example 449, N-((1S,2R)-2-(2-(Dimethylamino)acetamido)cyclohexyl)-5-(*S)-(2-methyl-4-phenoxyphenyl)-4-oxo-4,5-dihydro-3H-1-thia-3,5,8-triazaacenaphthylene-2-carboxamide]",6.51
5,"Cc1cc(Oc2ccccc2)ccc1N1C(=O)Nc2c(C(=O)N[C@H]3CCCC[C@H]3N)sc3nccc1c23 (single isomer, unassigned) [Example 450, N-((1S,2R)-2-Aminocyclohexyl)-5-(*S)-(2-methyl-4-phenoxyphenyl)-4-oxo-4,5-dihydro-3H-1-thia-3,5,8-triazaacenaphthylene-2-carboxamide]",6.47
6,"C=CC(=O)N[C@@H]1CCCC[C@@H]1NC(=O)c1sc2nccc3c2c1NC(=O)N3c1ccc(Oc2ccccc2)cc1C (single isomer, unassigned) [Example 451]",6.40
7,"Cc1cc(Oc2ccccc2)ccc1N1C(=O)Nc2c(C(=O)N[C@H]3CCC[C@H]3N)sc3nccc1c23 (single isomer, unassigned) [Example 452, N-((1S,2R)-2-Aminocyclopentyl)-5-(*S)-(2-methyl-4-phenoxyphenyl)-4-oxo-4,5-dihydro-3H-1-thia-3,5,8-triazaacenaphthylene-2-carboxamide]",6.38
8,"Cc1cc(CC(C)C)ncc1N1C(=O)Nc2c(C(=O)N[C@@H]3CCC[C@@H]3NC(=O)/C(C#N)=C/C3CC3)sc3nccc1c23 (single isomer, unassigned) [Example 466, N-((1R,2S)-2-((E)-2-Cyano-3-cyclopropylacrylamido)cyclopentyl)-5-(*S)-(6-isobutyl-4-methylpyridin-3-yl)-4-oxo-4,5-dihydro-3H-1-thia-3,5,8-triazaacenaphthylene-2-carboxamide]",7.63

# Same assay, conditions: compound, 50 nM Tracer 236, 2 nM anti-GST antibody, 60 minutes; pIC50 = negative log of the IC50 in molar
row,Structure (SMILES),BTK_I_binding pIC50
1,"C=CC(=O)NC1CCC[C@@H](NC(=O)c2sc3nccc4c3c2NC(=O)N4c2ccc(Oc3ccccc3)cc2C)C1 (stereo in doubt) [Example 2, N-((1R,3S)-3-Acrylamidocyclohexyl)-5-(2-methyl-4-phenoxyphenyl)-4-oxo-4,5-dihydro-3H-1-thia-3,5,8-triazaacenaphthylene-2-carboxamide]",7.36
2,"C=CC(=O)NC1CCC[C@H]1NC(=O)c1sc2nccc3c2c1NC(=O)N3c1ccnc(-c2ccccc2)c1 (stereo in doubt) [Example 197, N-((1R,2R)-2-Acrylamidocyclopentyl)-4-oxo-5-(2-phenylpyridin-4-yl)-4,5-dihydro-3H-1-thia-3,5,8-triazaacenaphthylene-2-carboxamide]",7.48
3,"C=CC(=O)N[C@H]1CC[C@@H](NC(=O)c2sc3nccc4c3c2NC(=O)N4c2ccc(Oc3ccccc3)cc2C)CC1 [Example 3, N-((1S,4S)-4-Acrylamidocyclohexyl)-5-(2-methyl-4-phenoxyphenyl)-4-oxo-4,5-dihydro-3H-1-thia-3,5,8-triazaacenaphthylene-2-carboxamide]",7.42
4,"Cc1cc(Oc2ccccc2)ccc1N1C(=O)Nc2c(C(=O)N[C@@H]3CCC[C@@H]3O)sc3nccc1c23 [Example 6, N-((1R,2S)-2-Hydroxycyclopentyl)-5-(2-methyl-4-phenoxyphenyl)-4-oxo-4,5-dihydro-3H-1-thia-3,5,8-triazaacenaphthylene-2-carboxamide]",7.48
5,"Cc1cc(Oc2ccccc2)ccc1N1C(=O)Nc2c(C(=O)N[C@@H]3CCC[C@H]3O)sc3nccc1c23 [Example 9, N-((1R,2R)-2-Hydroxycyclopentyl)-5-(2-methyl-4-phenoxyphenyl)-4-oxo-4,5-dihydro-3H-1-thia-3,5,8-triazaacenaphthylene-2-carboxamide]",7.41
6,"Cc1cc(Oc2ccccc2)ccc1N1C(=O)Nc2c(C(=O)N[C@@H]3CCCC[C@@H]3N)sc3nccc1c23 [Example 10, N-((1R,2S)-2-Aminocyclohexyl)-5-(2-methyl-4-phenoxyphenyl)-4-oxo-4,5-dihydro-3H-1-thia-3,5,8-triazaacenaphthylene-2-carboxamide]",7.35
7,"CC(=O)N[C@@H]1CCC[C@H]1NC(=O)c1sc2nccc3c2c1NC(=O)N3c1ccc(Oc2ccccc2)cc1C [Example 11, N-((1R,2R)-2-Acetamidocyclopentyl)-5-(2-methyl-4-phenoxyphenyl)-4-oxo-4,5-dihydro-3H-1-thia-3,5,8-triazaacenaphthylene-2-carboxamide]",7.24
8,"Cc1cc(Oc2ccccc2)ccc1N1C(=O)Nc2c(C(=O)N[C@@H]3CCC[C@@H]3N)sc3nccc1c23 [Example 12, N-((1R,2S)-2-Aminocyclopentyl)-5-(2-methyl-4-phenoxyphenyl)-4-oxo-4,5-dihydro-3H-1-thia-3,5,8-triazaacenaphthylene-2-carboxamide]",7.03
9,"C=CC(=O)N[C@H]1CC[C@H](NC(=O)c2sc3nccc4c3c2NC(=O)N4c2ccc(Oc3ccccc3)cc2C)CC1 [Example 13, N-((1R,4R)-4-Acrylamidocyclohexyl)-5-(2-methyl-4-phenoxyphenyl)-4-oxo-4,5-dihydro-3H-1-thia-3,5,8-triazaacenaphthylene-2-carboxamide]",6.94
10,"Cc1cc(Oc2ccccc2)ccc1N1C(=O)Nc2c(C(=O)N[C@H]3CC[C@H](O)CC3)sc3nccc1c23 [Example 15, N-((1R,4R)-4-Hydroxycyclohexyl)-5-(2-methyl-4-phenoxyphenyl)-4-oxo-4,5-dihydro-3H-1-thia-3,5,8-triazaacenaphthylene-2-carboxamide]",7.21
11,"Cc1cc(Oc2ccccc2)ccc1N1C(=O)Nc2c(C(=O)N[C@H]3CC[C@@H](O)CC3)sc3nccc1c23 [Example 16, N-((1S,4S)-4-Hydroxycyclohexyl)-5-(2-methyl-4-phenoxyphenyl)-4-oxo-4,5-dihydro-3H-1-thia-3,5,8-triazaacenaphthylene-2-carboxamide]",7.14
12,"CO[C@H]1CC[C@H](NC(=O)c2sc3nccc4c3c2NC(=O)N4c2ccc(Oc3ccccc3)cc2C)CC1 [Example 18, N-((1R,4R)-4-Methoxycyclohexyl)-5-(2-methyl-4-phenoxyphenyl)-4-oxo-4,5-dihydro-3H-1-thia-3,5,8-triazaacenaphthylene-2-carboxamide]",6.99
13,"Cc1cc(Oc2ccccc2)ccc1N1C(=O)Nc2c(C(=O)N[C@H]3CC[C@@H](NC(=O)/C(C#N)=C/C4CC4)CC3)sc3nccc1c23 [Example 19, N-((1S,4S)-4-((E)-2-Cyano-3-cyclopropylacrylamido)cyclohexyl)-5-(2-methyl-4-phenoxyphenyl)-4-oxo-4,5-dihydro-3H-1-thia-3,5,8-triazaacenaphthylene-2-carboxamide]",6.63
14,"Cc1cc(Oc2ccccc2)ccc1N1C(=O)Nc2c(C(=O)N[C@H]3CCC[C@@H]3O)sc3nccc1c23 [Example 20, N-((1S,2S)-2-Hydroxycyclopentyl)-5-(2-methyl-4-phenoxyphenyl)-4-oxo-4,5-dihydro-3H-1-thia-3,5,8-triazaacenaphthylene-2-carboxamide]",7.02
15,"CN[C@@H]1CCC[C@H]1NC(=O)c1sc2nccc3c2c1NC(=O)N3c1ccc(Oc2ccccc2)cc1C [Example 21, 5-(2-Methyl-4-phenoxyphenyl)-N-((1R,2R)-2-(methylamino)cyclopentyl)-4-oxo-4,5-dihydro-3H-1-thia-3,5,8-triazaacenaphthylene-2-carboxamide]",6.85

# Same assay, conditions: read-out: BTK_I_binding pIC50 (converted)
row,Structure (SMILES),IC50
1,"Cc1cc(CC(C)C)ncc1N1C(=O)Nc2c(C(=O)N[C@@H]3CCC[C@@H]3NC(=O)/C=C/CNC(=O)CCCC(=O)NCCCOCCOCCOCCCNC(=O)CCCC[C@@H]3SC[C@@H]4NC(=O)N[C@@H]43)sc3nccc1c23 (single isomer, unassigned) [Example 464]",229 nM
2,"Cc1cc(Oc2ccccc2)ccc1N1C(=O)Nc2c(C(=O)N[C@@H]3CCC[C@@H]3N(C)C)sc3nccc1c23 [Example 17, N-((1R,2S)-2-(Dimethylamino)cyclopentyl)-5-(2-methyl-4-phenoxyphenyl)-4-oxo-4,5-dihydro-3H-1-thia-3,5,8-triazaacenaphthylene-2-carboxamide]",120 nM
